Experimental data taken from patent US20090257988A1, “METHODS AND COMPOSITIONS FOR ACCELERATING THE GENERATION OF REGULATORY T CELLS EX VIVO” (USC Stevens, Hughes Center, priority 2008, published 2009).
“Also recorded” adds a separate entry of the source.

Columns and labels:
naïve CD4+ cells [1] = experiment: FOXP3 expression by flow cytometry in naïve CD4+ cells stimulated with anti-CD3/CD28 beads; type: cell-based, human
Excerpt: FIG. 1 is a typical example of FOXP3 expression at day 6 of cultures of non-regulatory T cells. In the experiments represented in this figure, naïve CD4+ cells were stimulated with 3/28 beads (1 bead per 10 T cells) with (right panel) or without (left panel) TGF-β for 6 days.
This inhibitor blocks TGF-β type I receptor signaling. The figures in FIG. 2A provide data from flow cytometry analysis of stimulated CD4+ cells. Naïve CD4+ cells were stimulated with anti-CD3/CD28 beads for 5 or 6 days in medium only (left-most panel), in the presence of 5 ng/ml TGF-β (middle panel) or with 1 μM azacytidine (right-most panel). The graphs also show data from cells stimulated with and without ALK5i (10 μM).
FIG. 3A provides flow cytometry data from naïve CD4 cells stimulated with anti-CD3/CD28 beads for 5 or 6 days in (in order of the panels from left to right) medium alone, in medium containing TGF-β, in medium containing azacytidine, and in medium containing azacytidine and TGF-β. The arrows indicate the […] after stimulation with anti-CD3/anti-CD28.
Naïve CD4+ cells were stimulated with anti-CD3/28 beads as described above. […] FOXP3 expression among CD4+CD25+ cells was determined by flow cytometry. FIG. 5A is a bar graph showing the indicated mean±SEM for 5 independent experiments. FIG. 5B is representative of experiments in 0.1 μM ATRA.
The traces identified with arrows indicate data from cells expressing FOXP3 after stimulation, and percentage of FOXP3 expressing cells is indicated in each figure.

responder T cells = experiment: Suppressive activity of stimulated CD4+ cells on proliferation of CFSE-labeled responder T cells; type: cell-based, human; settings: FIG. 4; cells stimulated with vs without azacytidine; ratio 1:10 to responder cells, soluble anti-CD3, 3 days
Experimental: Each population of stimulated cells was assayed for suppressive activity by culturing the cells with responder T cells labeled with carbofluorescein diacetate succinimydil ester (CFSE) at a ratio of 1:10. The cells were stimulated with soluble anti-CD3 for 3 days and proliferation of the responder cells was measured by dilution of CFSE.
The induced Tregs were added to T respond cells (1:4 ratio) and suppressive activity was calculated.

CD4+ cells = experiment: Proliferation of cultured CD4+ cells upon re-stimulation; type: cell-based, human; settings: after 6 days of culture
Excerpt: A further phenotypic property of nTregs is poor proliferative responsiveness, which is often accompanied by lowered production of certain pro-proliferation cytokines, such as IL-2. Other cytokines, such as IL-4, IFNγ and TFN-α are also associated with proliferation, although they are generally produced in low levels even in proliferating cells. Proliferation response can be measured using methods known in the art, such as thymidine uptake assays and assays of carboxyfluorescein succinimidyl ester (CFSE) dilution.
As discussed above, one phenotypic property of nTregs is poor proliferative responsiveness. Human naïve CD4+ cells stimulated with IL-2 and TGF-β become FOXP3+, but are only partially differentiated suppressor cells. […] Since the only source of pro-proliferative cytokines are the iTregs themselves, the lack of proliferation by azacytidine-treated cells is consistent with poor cytokine production, which is a distinguishing characteristic of nTregs.

[2] = system: memory CD4+ cells (CD45RO+); experiment: Stimulation of memory CD4+ cells (CD45RO+) with or without azacytidine (Example 7); type: cell-based
Experimental: In addition to naïve CD4+ cells (also referred to as CD45RA+ cells), memory CD4+ cells (CD45RO+) are stimulated and assessed for the effect of azacytidine and azacytidine+retinoic acid on their phenotypic properties. These memory CD4+ cells represent a resting but previously activated population. The cells are stimulated with anti-CD3/anti-CD28 beads (at 1 in 10) with or without azacytidine (1 μM), azacytidine combined with all-trans retinoic acid and also with or without TGF-β (5 ng/ml). After 6 days, the cells are depleted of stimulating beads and assayed for FOXP3 expression, suppressor activity and proliferative activity. Greater than 50% of the stimulated cells express FOXP3. Enhanced FOXP3 expression in cells cultured in medium alone may be due to TGF-β provided by non-T cells in the culture.
Remaining cells are restimulated with anti-CD3/anti-CD28 (at 1 in 10) with or without fresh azacytidine and/or azacytidine plus retinoic acid, such that there is a group from each CD4+ subset that is exposed to azacytidine/azacytidine+retinoic acid for the first time. After a further 6 days, the cells are assayed again for FOXP3 expression, suppressor activity and proliferative activity.

naïve CD4+ cells [3] = experiment: Surface marker phenotype (CD45RO, CD103, CD127) of stimulated naïve CD4+ cells; type: cell-based, human; settings: FIG. 7; after 6 days of stimulation
Excerpt: Naïve T cells display the CD45RA+ marker and lack CD45RO. […] Finally, nTregs characteristically express the αEβ7 integrin (CD103) induced by TGF-β.

naïve CD4+ cells [4] = experiment: Membrane-bound TGF-β staining after re-stimulation of naïve CD4+ cells; type: cell-based, human; settings: FIG. 8; 6 days with agents, re-stimulated with anti-CD3/28 beads
Excerpt: Naïve CD4+ cells were stimulated with agents indicated for 6 days and re-stimulated with anti-CD3/28 beads and stained with fluorochrome-conjugated anti-TGF-β for membrane-bound TGF-β.

CD4+GFP-cells = experiment: FOXP3 induction in CD4+GFP- cells of GFP-FOXP3 mice (Example 10); type: cell-based; settings: CD4+GFP- cells sorted from GFP-FOXP3 mice
Experimental: This assessment utilizes mice engineered to express a GFP-FOXP3 fusion protein. CD4+GFP-cells isolated by cell sorting are stimulated in the presence or absence of regulatory compositions containing azacytidine and regulatory compositions containing azacytidine and retinoic acid. Stimulation is also tested with such regulatory compositions with and without TGF-β. […] Purified populations of FOXP3+ cells are isolated by cell sorting. As a positive control, nTregs are also sorted from fresh spleens and lymph nodes. Both iTregs and nTregs cells (5×10^6) are injected into congenic CD45.1-mice. For the azacytidine-generated iTreg there are enough cells to have three to four mice per group. There are at least two mice per group for the nTregs. In some experiments, nTregs are expanded in culture to obtain sufficient numbers of cells.

[5] = azacytidine 1 μM, after repeated stimulation

2′-Deoxy-5-azacytidine; 5-Aza-2′-deoxycytidine
FOXP3 expression (percentage of FOXP3 positive cells) (naïve CD4+ cells [1]; FIG. 2A, anti-CD3/CD28 beads 5 or 6 days, 1 μM azacytidine, no exogenous TGF-β, vs medium only): enhances FOXP3 expression to a similar extent as the enhancement seen with TGF-β; also recorded: markedly augments the percentage of FOXP3 positive cells | suppressive activity (responder T cells): significantly more suppressive; also recorded: develop suppressive activity | proliferation upon re-stimulation (CD4+ cells): fail to proliferate upon re-stimulation | FOXP3 expression vs total T cells stimulated without azacytidine [2, 5]: markedly greater | suppressive activity vs total T cells stimulated without azacytidine [2, 5]: markedly greater

CC1=C(/C=C/C(C)=C/C=C/C(C)=C/C(=O)O)C(C)(C)CCC1 [retinoic acid, all-trans retinoic acid]
FOXP3 expression in stimulated CD4+ cells (naïve CD4+ cells [1]; FIG. 5, retinoic acid added to TGF-β and azacytidine, ATRA 0.1-0.5 μM, 4 days, CD4+CD25+ cells): enhances FOXP3 expression

TGF-β
cells which express FOXP3 (naïve CD4+ cells [1]; FIG. 1, 3/28 beads (1 bead per 10 T cells), 6 days, with vs without TGF-β): twice as many cells which express FOXP3 | cells that acquired the CD45RO marker (naïve CD4+ cells [3]): 50% | expression of membrane-bound TGF-β (naïve CD4+ cells [4]): some T cells primed with TGF-β now expressed this cytokine on their cell surface; also recorded: some T cells contacted with TGF-β prior to stimulation now expressed this cytokine on their cell surface | proliferation of stimulated cells ([2]; TGF-β 5 ng/ml, 6 days): hyperproliferative and expand markedly | FOXP3 expression (CD4+GFP-cells): induces FOXP3 expression
